According to patent US20240238186A1, “Topical Compositions Comprising (Glyco)Sphingolipids and/or (Glyco)Ceramides” (CarboCode S.A., priority 2021, published 2024):

Assays:
Type in all cases: cell-based
[1] = system: Reconstructed Human Epidermis (RHE); experiment: Proteomic analysis (LC-MS/MS) of Reconstructed Human Epidermis topically treated with lipid in base emulsion; conditions: lipid in base emulsion 24h, vs vehicle
From the text: FIGS. 1 to 5 show heatmaps using a log 2 scale with up- or downregulation of respective proteins upon treatment with 0,01% (01), 0,03% (03) and 0,15% (15) of respective ceramide in vehicle as compared to vehicle without ceramide (VEH) (FIG. 1: LacCerNS, FIG. 2: GlcCerNS, FIG. 3: CerNP. FIG. 4: CerNG, FIG. 5: CerNS); detailed experimental setup explained in Example 4.
Material and methods: Reconstructed Human Epidermis (RHE) cell culture was used, as this system mimics the in vivo 3D structure of epidermal tissue as well as the conditions and processes that occur in normal epidermis. RHE were cultured using the medium provided by the manufacturer until analysis. RHE were maintained in survival for 24 hours, before RHE were topically treated with lipid in a base emulsion for 24h. 3 RHE were treated with base emulsion alone and 3 more remained untreated as a control batch (Ctrl). RHE were incubated under classical cell culture conditions (37° C., 5% CO2).
Sample preparation and LC-MS/MS analysis: Protein was extracted using the Pierce Total Protein Extraction Kit (Thermo Fisher) according to manufacturer's recommendations. The protein was mixed with Laemmli buffer and heated to 37° ° C. for 30 min. Protein concentration was determined by the BCA method and standardized for all samples. The samples were separated by SDS-PAGE and digested with trypsin overnight. The peptides generated were acidified and separated. The mass spectra were queried using Proteome Discoverer (version 2.5). The resulting MS/MS data were queried against the Homo sapiens proteome UP000005640 (20371 reviewed entries). Results were filtered based on unique peptides >2, and global peptide scores. Analyses were performed using Proteome Discoverer 2.5 to check for overall sample quality.
Bioinformatics and statistical analysis: Proteomic analysis returned a mean total of 34961 high-quality peptides corresponding to a mean 2422 identifiable and quantifiable RHE proteins among conditions. A summary of proteins differentially expressed within conditions is provided in Annexe 3. Proteins with a p-value≤0,05 in at least one of the concentrations tested for a lipid were considered significant and used for pairwise comparisons. Relevant proteins were classified by their biological processes and associated pathways using the publicly available gene ontology (GO) database provided by the Gene Ontology Consortium and Reactome. Interactome analysis was performed using Cytoscape combined with STRING.

[2] = system: Human epidermal keratinocytes; experiment: Gene expression in keratinocytes, qPCR; conditions: 200 ppm in DMSO, 1 week
Description: (§1) Human epidermal keratinocytes are obtained from a commercial vendor. The cells are isolated from juvenile foreskin or from adult normal human tissue collected from various sites that include face, breast, abdomen, and thigh. The cells are cultivated in a T25 flask using a commercial keratinocyte Growth Medium which is a serum-free medium and optimized for the in vitro cultivation of epidermal keratinocytes without feeder cells. A commercial growth supplement and calcium is added to a final concentration of 1.2 mM to induce differentiation.
(§2) Upon reaching cell confluence, the cells are treated with either 200 ppm glucosylceramide or 200 ppm lactosylceramide, each dissolved in dimethyl sulfoxide (DMSO) for 1 week. The cells are homogenised with 2 mL chloroform:methanol (2:1), and transferred to a vial containing Phosphate Buffered Saline (PBS). The homogeniser is rinsed twice with solvent and all rinses are together. The organic phase is evaporated to dryness.
Gene expression is determined by isolating RNA samples from the keratinocytes using a Qiagen RNeasy kit with DNase I digestion. Reverse transcription is performed using a high-capacity cDNA kit, cDNA samples of 40 ng are used for qPCR. Taqman gene expression assay is purchased commercially, and the qPCR reaction is performed using a fast amplifier. […] Relative gene expression is calculated by comparative CT method.

[3] = system: Human epidermal keratinocytes; experiment: Ceramide levels produced by keratinocytes, HPTLC; conditions: 200 ppm in DMSO, 1 week; compared to untreated keratinocytes
Description: as §1, §2
Ceramide levels produced by the keratinocytes are measured by a modified high-performance thin layer chromatography (HPTLC) method. […] The plates are stained with 3% copper acetate in 8% phosphoric acid and charred at 160° C. for the quantitation of ceramides. Quantification is performed against known quantities of Ceramide NP by laser scanning densitometry. Each plate is scanned at 425 nm and quantified using WinCATS software.

CCCCCCCCCCCCC/C=C/[C@@H](O)[C@H](CO[C@@H]1O[C@H](CO)[C@@H](O)[C@H](O)[C@H]1O)NC(=O)CCCCCCCCCCCCCCCCC [glucosyl ceramide]
3-ketodihydrosphingosine reductase protein regulation [1]: upregulation | ATP synthase subunit delta (mitochondrial) regulation [1]: upregulation | ATP synthase subunit g (mitochondrial) regulation [1]: upregulation | ATP-dependent zinc metalloprotease YME1L1 regulation [1]: upregulation | NAD-dependent malic enzyme (mitochondrial) regulation [1]: upregulation | NADH dehydrogenase [ubiquinone] 1 alpha subcomplex subunit 8 regulation [1]: upregulation | NADH dehydrogenase [ubiquinone] iron-sulfur protein 2 (mitochondrial) regulation [1]: upregulation | acetyl-coenzyme A synthetase (cytoplasmic) protein regulation [1]: upregulation | cytochrome c oxidase subunit 6C regulation [1]: upregulation | malonate-CoA ligase ACSF3 (mitochondrial) protein regulation [1]: upregulation | phosphomevalonate kinase protein regulation [1]: upregulation | proteins of the mitochondrial respiratory chain, regulation [1]: upregulation | IL8 gene expression [2]: reduced gene expression | TNF gene expression [2]: reduced gene expression | expression of the ABCA12 gene [2]: increases | involucrin gene expression [2]: increase in expression | transglutaminase-1 gene expression [2]: increase in expression | β-glucocerebrosidase (GBA) expression [2]: Up-regulation | Total ceramides in keratinocytes [3]: elevated

CCCCCCCCCCCCCCCCCC(=O)N[C@@H](CO)[C@H](O)[C@H](O)CCCCCCCCCCCCCC [ceramide NP]
NADH dehydrogenase [ubiquinone] iron-sulfur protein 8 (mitochondrial) regulation [1]: upregulation | long-chain-fatty-acid-CoA ligase 3 protein regulation [1]: upregulation | phosphomevalonate kinase protein regulation [1]: upregulation | phosphopantothenate-cysteine ligase protein regulation [1]: upregulation | proteins of the mitochondrial respiratory chain, regulation [1]: upregulation | syndecan-1 protein regulation [1]: upregulation

CCCCCCCCCCCCC/C=C/[C@@H](O)[C@H](CO)NC(=O)CCCCCCCCCCCCCCCCC [ceramide NS]
cornifin-B protein regulation [1]: upregulation | filaggrin-2 protein regulation [1]: upregulation | kallikrein-5 protein regulation [1]: upregulation | phosphomevalonate kinase protein regulation [1]: upregulation | syndecan-1 protein regulation [1]: upregulation

CCCCCCCCCCCCCCCCCC(=O)N[C@@H](CO)[C@H](O)CCCCCCCCCCCCCCC [ceramide NG]
ATP synthase subunit delta (mitochondrial) regulation [1]: upregulation | ATP synthase subunit g (mitochondrial) regulation [1]: upregulation | ceramide synthase 4 protein regulation [1]: upregulation | cytochrome c oxidase subunit 6C regulation [1]: upregulation | loricrin protein regulation [1]: upregulation | phosphomevalonate kinase protein regulation [1]: upregulation | proteins of the mitochondrial respiratory chain, regulation [1]: upregulation | repetin protein regulation [1]: upregulation | small proline-rich protein 2D regulation [1]: upregulation

CCCCCCCCCCCCC/C=C/[C@@H](O)[C@H](CO[C@@H]1O[C@H](CO)[C@@H](O[C@@H]2O[C@H](CO)[C@H](O)[C@H](O)[C@H]2O)[C@H](O)[C@H]1O)NC(=O)CCCCCCCCCCCCCCCCC [lactosylceramide]
ATP synthase subunit delta (mitochondrial) regulation [1]: upregulation | ATP synthase subunit g (mitochondrial) regulation [1]: upregulation | ATP-dependent zinc metalloprotease YME1L1 regulation [1]: upregulation | NAD-dependent malic enzyme (mitochondrial) regulation [1]: upregulation | ceramide synthase 4 protein regulation [1]: upregulation | cytochrome b-c1 complex subunit 9 regulation [1]: upregulation | cytochrome c oxidase subunit 2 regulation [1]: upregulation | cytochrome c oxidase subunit 6C regulation [1]: upregulation | cytochrome c oxidase subunit NDUFA4 regulation [1]: upregulation | phosphomevalonate kinase protein regulation [1]: upregulation | proteins of the mitochondrial respiratory chain, regulation [1]: upregulation | syndecan-1 protein regulation [1]: upregulation | IL8 gene expression [2]: reduced gene expression | TNF gene expression [2]: reduced gene expression | expression of the ABCA12 gene [2]: increases | involucrin gene expression [2]: increase in expression | transglutaminase-1 gene expression [2]: increase in expression | β-glucocerebrosidase (GBA) expression [2]: Up-regulation | Total ceramides in keratinocytes [3]: elevated
